From ChEMBL document CHEMBL1201862, “PubChem BioAssay data set” (2004)
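Exposure lasted 48 hours, with cells grown in 96-well plates and compounds tested at five concentrations. GI50 = concentration required for 50% inhibition of growth.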 Activity calls are given as the source filed them. Rule as the data show it: active = GI50 up to about 1.1 µM and inactive = higher.

Assays:
Experiment in all cases: inhibition of tumour cell growth, NCI panel, 48 h
HCT-15 = system: HCT-15
Malme-3M = system: Malme-3M
U-251 = system: U-251
K562 = system: K562
SF-539 = system: SF-539
SF-295 = system: SF-295
RPMI-8226 = system: RPMI-8226
SK-OV-3 = system: SK-OV-3
HT-29 = system: HT-29
COLO 205 = system: COLO 205
MDA-MB-231 = system: MDA-MB-231
MOLT-4 = system: MOLT-4
IGROV-1 = system: IGROV-1
HOP-92 = system: HOP-92
NCI/ADR-RES = system: NCI/ADR-RES
SNB-75 = system: SNB-75
HCT-116 = system: HCT-116
SF-268 = system: SF-268
T47D = system: T47D
HOP-62 = system: HOP-62
SK-MEL-2 = system: SK-MEL-2
HCC 2998 = system: HCC 2998
NCI-H226 = system: NCI-H226
PC-3 = system: PC-3
KM12 = system: KM12
SNB-19 = system: SNB-19
SK-MEL-5 = system: SK-MEL-5
NCI-H23 = system: NCI-H23
A498 = system: A498
SR = system: SR
ACHN = system: ACHN
UACC-257 = system: UACC-257
MDA-N = system: MDA-N
OVCAR-8 = system: OVCAR-8
CAKI-1 = system: CAKI-1
BT-549 = system: BT-549
MCF7 = system: MCF7
SW-620 = system: SW-620
CCRF-CEM = system: CCRF-CEM
DU-145 = system: DU-145
OVCAR-3 = system: OVCAR-3
UACC-62 = system: UACC-62
TK-10 = system: TK-10
A549 = system: A549
NCI-H522 = system: NCI-H522
EKVX = system: EKVX
LOX IMVI = system: LOX IMVI
HL-60 = system: HL-60
SN12C = system: SN12C
MDA-MB-435 = system: MDA-MB-435
UO-31 = system: UO-31
OVCAR-5 = system: OVCAR-5
OVCAR-4 = system: OVCAR-4
SK-MEL-28 = system: SK-MEL-28
NCI-H460 = system: NCI-H460
Hs-578T = system: Hs-578T
M14 = system: M14
786-0 = system: 786-0
RXF 393 = system: RXF 393

Nc1ccn(C2OC(CO[PH](=O)OC3C(CO[PH](=O)OC4C(CO[PH](=O)OC5C(CO[PH](=O)OC6C(CO[PH](=O)OC7C(CO[PH](=O)OC8C(CO[PH](=O)OC9C(CO[PH](=O)OC%10C(CO[PH](=O)OC%11C(CO)OC(n%12ccc(N)nc%12=O)C%11(F)F)OC(n%11ccc(N)nc%11=O)C%10(F)F)OC(n%10ccc(N)nc%10=O)C9(F)F)OC(n9ccc(N)nc9=O)C8(F)F)OC(n8ccc(N)nc8=O)C7(F)F)OC(n7ccc(N)nc7=O)C6(F)F)OC(n6ccc(N)nc6=O)C5(F)F)OC(n5ccc(N)nc5=O)C4(F)F)OC(n4ccc(N)nc4=O)C3(F)F)C(O)C2(F)F)c(=O)n1 (centres undefined)
GI50 (HCT-15): 0.442 µM
GI50 (Malme-3M): 0.391 µM (active)
GI50 (U-251): 0.0373 µM (active)
GI50 (K562): 1.49 µM (inactive)
GI50 (SF-539): 0.0112 µM (active)
GI50 (SF-295): 0.0697 µM (active)
GI50 (RPMI-8226): 0.0582 µM (active)
GI50 (SK-OV-3): 0.979 µM (active)
GI50 (HT-29): 0.112 µM (active)
GI50 (COLO 205): 0.741 µM (active)
GI50 (MDA-MB-231): 1.4 µM (inactive)
GI50 (MOLT-4): 0.0333 µM (active)
GI50 (IGROV-1): 0.912 µM (active)
GI50 (HOP-92): 0.155 µM (active)
GI50 (NCI/ADR-RES): 0.051 µM (active)
GI50 (SNB-75): 0.0254 µM (active)
GI50 (HCT-116): 0.0134 µM (active)
GI50 (SF-268): 0.0285 µM (active)
GI50 (T47D): 0.553 µM (active)
GI50 (HOP-62): 0.0581 µM (active)
GI50 (SK-MEL-2): 2.18 µM (inactive)
GI50 (HCC 2998): 0.0805 µM (active)
GI50 (NCI-H226): 9.44 µM (inactive)
GI50 (PC-3): 5.5 µM (inactive)
GI50 (KM12): 5.38 µM (inactive)
GI50 (SNB-19): 0.0259 µM (active)
GI50 (SK-MEL-5): 1.73 µM (inactive)
GI50 (NCI-H23): 0.0423 µM (active)
GI50 (A498): 0.114 µM (active)
GI50 (SR): 0.0183 µM (active)
GI50 (ACHN): 0.00533 µM (active)
GI50 (UACC-257): 0.34 µM (active)
GI50 (MDA-N): 0.0442 µM (active)
GI50 (OVCAR-8): 0.0156 µM (active)
GI50 (CAKI-1): 0.0316 µM (active)
GI50 (BT-549): 0.0661 µM (active)
GI50 (MCF7): 0.0103 µM (active)
GI50 (SW-620): 0.577 µM (active)
GI50 (CCRF-CEM): 0.0172 µM (active)
GI50 (DU-145): 0.0109 µM (active)
GI50 (OVCAR-3): 17.1 µM (inactive)
GI50 (UACC-62): 0.0466 µM (active)
GI50 (TK-10): 3.03 µM (inactive)
GI50 (A549): 0.016 µM (active)
GI50 (NCI-H522): 1.43 µM (inactive)
GI50 (EKVX): 5.46 µM (inactive)
GI50 (LOX IMVI): 0.0418 µM (active)
GI50 (HL-60): 0.0193 µM (active)
GI50 (SN12C): 0.0661 µM (active)
GI50 (MDA-MB-435): 0.0526 µM (active)
GI50 (UO-31): 0.0213 µM (active)
GI50 (OVCAR-5): 0.111 µM (active)
GI50 (OVCAR-4): 10 µM (inactive)
GI50 (SK-MEL-28): 0.594 µM (active)
GI50 (NCI-H460): 0.0208 µM (active)
GI50 (Hs-578T): 2.22 µM (inactive)

Cn1c(=S)c2nc(SCCN3CCCC3)[nH]c2n(C)c1=O
GI50 (HCT-15): > 100 µM
GI50 (Malme-3M): > 100 µM (inactive)
GI50 (U-251): > 100 µM (inactive)
GI50 (K562): > 100 µM (inactive)
GI50 (SF-539): > 100 µM (inactive)
GI50 (SF-295): > 100 µM (inactive)
GI50 (RPMI-8226): > 100 µM (inactive)
GI50 (SK-OV-3): > 100 µM (inactive)
GI50 (HT-29): > 100 µM (inactive)
GI50 (COLO 205): > 100 µM (inactive)
GI50 (M14): > 100 µM (inactive)
GI50 (MDA-MB-231): > 100 µM (inactive)
GI50 (MOLT-4): > 100 µM (inactive)
GI50 (IGROV-1): > 100 µM (inactive)
GI50 (HOP-92): > 100 µM (inactive)
GI50 (NCI/ADR-RES): > 100 µM (inactive)
GI50 (SNB-75): > 100 µM (inactive)
GI50 (HCT-116): > 100 µM (inactive)
GI50 (SF-268): > 100 µM (inactive)
GI50 (T47D): > 100 µM (inactive)
GI50 (HOP-62): > 100 µM (inactive)
GI50 (SK-MEL-2): > 100 µM (inactive)
GI50 (786-0): > 100 µM (inactive)
GI50 (NCI-H226): > 100 µM (inactive)
GI50 (PC-3): > 100 µM (inactive)
GI50 (KM12): > 100 µM (inactive)
GI50 (SNB-19): > 100 µM (inactive)
GI50 (SK-MEL-5): > 100 µM (inactive)
GI50 (NCI-H23): > 100 µM (inactive)
GI50 (A498): > 100 µM (inactive)
GI50 (SR): > 100 µM (inactive)
GI50 (ACHN): > 100 µM (inactive)
GI50 (UACC-257): > 100 µM (inactive)
GI50 (RXF 393): > 100 µM (inactive)
GI50 (MDA-N): > 100 µM (inactive)
GI50 (OVCAR-8): > 100 µM (inactive)
GI50 (CAKI-1): > 100 µM (inactive)
GI50 (BT-549): > 100 µM (inactive)
GI50 (MCF7): > 100 µM (inactive)
GI50 (SW-620): > 100 µM (inactive)
GI50 (CCRF-CEM): > 100 µM (inactive)
GI50 (DU-145): > 100 µM (inactive)
GI50 (OVCAR-3): > 100 µM (inactive)
GI50 (UACC-62): > 100 µM (inactive)
GI50 (TK-10): > 100 µM (inactive)
GI50 (A549): > 100 µM (inactive)
GI50 (NCI-H522): > 100 µM (inactive)
GI50 (EKVX): 76 µM (inactive)
GI50 (LOX IMVI): > 100 µM (inactive)
GI50 (HL-60): > 100 µM (inactive)
GI50 (SN12C): > 100 µM (inactive)
GI50 (MDA-MB-435): > 100 µM (inactive)
GI50 (UO-31): > 100 µM (inactive)
GI50 (OVCAR-5): > 100 µM (inactive)
GI50 (OVCAR-4): > 100 µM (inactive)
GI50 (SK-MEL-28): > 100 µM (inactive)
GI50 (NCI-H460): > 100 µM (inactive)
GI50 (Hs-578T): > 100 µM (inactive)
